Results as given in ChEMBL document CHEMBL5096171, “Synthesis and Biological Evaluation of PSMA Ligands with Aromatic Residues and Fluorescent Conjugates Based on Them” (J Med Chem, 2021).
Converted amounts (≈) assume the structure as drawn.

How the values were obtained:
[1] = molecular target: Glutamate carboxypeptidase 2 (Homo sapiens, UniProt Q04609); test: Inhibition of PSMA derived from human LNCaP cell lysate assessed as inhibition of NAAG hydrolysis incubated for 2 hrs in presence of NAAG by Amplex Red assay; format: subcellular
LNCaP = test: Cytotoxicity against human LNCaP cells assessed as reduction in cell viability incubated for 5 days by MTT assay; format: functional; conditions: 120 h, time 5 day
PC-3 = test: Cytotoxicity against human PC-3 cells assessed as reduction in cell viability incubated for 5 days by MTT assay; format: functional; conditions: PC-3, 120 h, time 5 day
[2] = Drug excretion in […] at 0.449 mg/kg, IT administered as single dose measured after 24 hrs; format: ADME, organism-based, CWR22R; conditions: in vivo, other
[3] = Drug uptake in bloodstream of Balb/c nude mouse xenografted with human 22Rv1 cells at 0.449 mg/kg, IT administered as single dose measured upto 8 hrs; format: ADME, organism-based, Blood, CWR22R; conditions: in vivo, other
[4] = Drug uptake in human 22Rv1 cells xenografted in Balb/c nude mouse assessed as amount of fluorescence intensity at 0.449 mg/kg, IT administered as single dose measured after 24 hrs by IVIS Spectrum CT analysis; format: ADME, organism-based, CWR22R; conditions: in vivo, other
[5] = Drug uptake in human PC-3 cells xenografted in Balb/c nude mouse assessed as amount of fluorescence intensity at 0.449 mg/kg, IT administered as single dose measured after 24 hrs by IVIS Spectrum CT analysis; format: ADME, organism-based; conditions: in vivo, other
[6] = C0 in Soviet Chinchilla rabbit by HPLC analysis; format: ADME, Oryctolagus cuniculus; conditions: in vivo
[7] = C0 in Wistar Albino rat by HPLC analysis; format: ADME; conditions: in vivo
[8] = AUC (0 to t) in Soviet Chinchilla rabbit by HPLC analysis; format: ADME, Oryctolagus cuniculus; conditions: in vivo
[9] = AUC (0 to t) in Wistar Albino rat by HPLC analysis; format: ADME; conditions: in vivo
[10] = AUC (0 to infinity) in Soviet Chinchilla rabbit by HPLC analysis; format: ADME, Oryctolagus cuniculus; parameters: time infinity; conditions: in vivo
[11] = AUC (0 to infinity) in Wistar Albino rat by HPLC analysis; format: ADME; parameters: time infinity; conditions: in vivo
[12] = Elimination rate constant in Soviet Chinchilla rabbit by HPLC analysis; format: ADME, Oryctolagus cuniculus
[13] = Elimination rate constant in Wistar Albino rat by HPLC analysis; format: ADME
[14] = Half life in Soviet Chinchilla rabbit by HPLC analysis; format: ADME, Oryctolagus cuniculus; conditions: in vivo
[15] = Half life in Wistar Albino rat by HPLC analysis; format: ADME; conditions: in vivo
[16] = Volume of distribution in Soviet Chinchilla rabbit by HPLC analysis; format: ADME, Oryctolagus cuniculus; conditions: in vivo
[17] = Volume of distribution in Wistar Albino rat by HPLC analysis; format: ADME; conditions: in vivo
[18] = Clearance in Soviet Chinchilla rabbit by HPLC analysis; format: ADME, Oryctolagus cuniculus; conditions: in vivo
[19] = Clearance in Wistar Albino rat by HPLC analysis; format: ADME; conditions: in vivo
[20] = MRT (0 to t) in Soviet Chinchilla rabbit by HPLC analysis; format: ADME, Oryctolagus cuniculus; conditions: in vivo
[21] = MRT (0 to t) in Wistar Albino rat by HPLC analysis; format: ADME; conditions: in vivo
[22] = Drug distribution in kidney of Wistar Albino rat measured after 2 to 4 hrs; format: ADME, tissue-based; conditions: in vivo, time 2-4 hrs
[23] = Drug distribution in liver of Wistar Albino rat measured after 2 to 4 hrs; format: ADME, tissue-based; conditions: in vivo, time 2-4 hrs
[24] = Drug distribution in small intestine of Wistar Albino rat measured after 2 to 4 hrs; format: ADME, tissue-based; conditions: in vivo, time 2-4 hrs
[25] = Drug excretion in urine of Wistar Albino rat measured after 2 to 4 hrs; format: ADME; conditions: in vivo, time 2-4 hrs
[26] = Drug distribution in blood plasma of Wistar Albino rat measured after 2 to 4 hrs; format: ADME, cell-free; conditions: time 2-4 hrs
[27] = Acute toxicity in 2 hrs fasted ICR mouse assessed as maximum tolerated dose administered intravenously measured after 14 days; conditions: in vivo, route iv
[28] = Acute toxicity in 2 hrs fasted ICR mouse assessed as body weight reduction at 89.7 mg/kg, iv measured for 5 to 10 days; format: organism-based; conditions: in vivo
[29] = Acute toxicity in 2 hrs fasted ICR mouse assessed as restoration of mass gain rate at 89.7 mg/kg, iv measured on day 14; format: organism-based; conditions: in vivo, 336 h, time 14 day
[30] = Acute toxicity in 2 hrs fasted ICR mouse assessed as toxic effect at 1.1 mg/kg, iv measured after 14 days; format: organism-based; conditions: in vivo, 336 h, time 14 day
[31] = Acute toxicity in 2 hrs fasted ICR mouse assessed as reversible decrease in body weight dynamics at 89.7 mg/kg, iv measured after 14 days; format: organism-based; conditions: in vivo, 336 h, time 14 day
[32] = Acute toxicity in 10 to 12 hrs fasted Wistar rat assessed as maximum tolerated dose administered intravenously measured after 14 days; conditions: in vivo, route iv, time 14 day
[33] = Acute toxicity in 10 to 12 hrs fasted Wistar rat assessed as toxic effect at 0.72 to 45 mg/kg, iv measured after 14 days; format: organism-based; conditions: in vivo, 336 h, dose 0.72-45 mg/kg, time 14 day
[34] = Acute toxicity in 10 to 12 hrs fasted Wistar rat assessed as change in body weight dynamics at 0.72 to 45 mg/kg, iv measured after 14 days; format: organism-based; conditions: in vivo, 336 h, dose 0.72-45 mg/kg, time 14 day
[35] = Acute toxicity in 10 to 12 hrs fasted Wistar rat assessed as increase in kidney damage at 45 mg/kg, iv measured after 14 days; format: organism-based; conditions: in vivo, 336 h, time 14 day
[36] = Chronic toxicity in Soviet Chinchilla rabbit assessed as change in blood albumin content at 120 to 243 mg/kg, iv administered once every 3 weeks; format: organism-based, Oryctolagus cuniculus; conditions: in vivo, 504 h, dose 120-243 mg/kg
[37] = Chronic toxicity in Soviet Chinchilla rabbit assessed as signs of intoxication at 120 to 243 mg/kg, iv administered once every 3 weeks; format: organism-based, Oryctolagus cuniculus; conditions: in vivo, 504 h, dose 120-243 mg/kg
[38] = Chronic toxicity in Soviet Chinchilla rabbit assessed as change in brain histology at 120 to 243 mg/kg, iv administered once every 3 weeks; format: organism-based, Oryctolagus cuniculus; conditions: in vivo, 504 h, dose 120-243 mg/kg
[39] = Chronic toxicity in Soviet Chinchilla rabbit assessed as change in heart histology at 120 to 243 mg/kg, iv administered once every 3 weeks; format: organism-based, Oryctolagus cuniculus; conditions: in vivo, 504 h, dose 120-243 mg/kg
[40] = Chronic toxicity in Soviet Chinchilla rabbit assessed as change in lung histology at 120 to 243 mg/kg, iv administered once every 3 weeks; format: organism-based, Oryctolagus cuniculus; conditions: in vivo, 504 h, dose 120-243 mg/kg
[41] = Chronic toxicity in Soviet Chinchilla rabbit assessed as change in liver histology at 120 to 243 mg/kg, iv administered once every 3 weeks; format: organism-based, Oryctolagus cuniculus; conditions: in vivo, 504 h, dose 120-243 mg/kg
[42] = Chronic toxicity in Soviet Chinchilla rabbit assessed as change in kidney histology at 120 to 243 mg/kg, iv administered once every 3 weeks; format: organism-based, Oryctolagus cuniculus; conditions: in vivo, 504 h, dose 120-243 mg/kg
[43] = Chronic toxicity in Soviet Chinchilla rabbit assessed as change in spleen histology at 120 to 243 mg/kg, iv administered once every 3 weeks; format: organism-based, Oryctolagus cuniculus; conditions: in vivo, 504 h, dose 120-243 mg/kg
[44] = n-Octanol/aqueous buffer distribution coefficient, log D of compound at pH 6.4 by shake flask method; format: physicochemical
[45] = Water solubility of the compound; format: physicochemical

Glutamate carboxypeptidase 2, sequence (Q04609 whole entry): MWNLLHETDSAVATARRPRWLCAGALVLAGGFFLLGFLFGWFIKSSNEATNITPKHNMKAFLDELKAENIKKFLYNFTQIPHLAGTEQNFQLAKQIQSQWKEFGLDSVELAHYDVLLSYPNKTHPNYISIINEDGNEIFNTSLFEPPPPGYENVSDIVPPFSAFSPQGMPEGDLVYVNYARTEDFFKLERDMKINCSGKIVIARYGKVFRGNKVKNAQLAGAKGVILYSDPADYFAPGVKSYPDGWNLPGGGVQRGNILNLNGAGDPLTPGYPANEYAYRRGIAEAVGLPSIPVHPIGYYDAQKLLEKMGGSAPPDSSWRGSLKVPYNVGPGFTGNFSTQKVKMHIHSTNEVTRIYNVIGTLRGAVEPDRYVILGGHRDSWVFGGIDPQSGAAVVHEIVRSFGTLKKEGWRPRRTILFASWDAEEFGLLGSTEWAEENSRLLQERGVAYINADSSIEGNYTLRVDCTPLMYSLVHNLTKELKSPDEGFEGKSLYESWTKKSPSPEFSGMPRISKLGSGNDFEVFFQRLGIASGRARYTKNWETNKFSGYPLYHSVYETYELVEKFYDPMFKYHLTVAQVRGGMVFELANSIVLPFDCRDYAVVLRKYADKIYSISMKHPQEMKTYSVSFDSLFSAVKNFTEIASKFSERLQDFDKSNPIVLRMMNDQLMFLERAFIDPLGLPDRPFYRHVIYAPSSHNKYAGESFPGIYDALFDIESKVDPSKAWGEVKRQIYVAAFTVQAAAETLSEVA

CN1/C(=C/C=C2C=C(/C=C/C3=[N+](CCCCCC(=O)NCc4cn(CCCNC(=O)[C@H](Cc5ccc(O)cc5)NC(=O)[C@H](Cc5ccccc5)NC(=O)CCC(=O)NCCCCCC(=O)N(CCCC[C@H](NC(=O)N[C@@H](CCC(=O)O)C(=O)O)C(=O)O)Cc5cccc(Cl)c5)nn4)c4ccc(S(=O)(=O)[O-])cc4C3(C)C)CCC/2)C(C)(C)c2cc(S(=O)(=O)O)ccc21
Ki [1]: 0.0181 µM
CC50 (LNCaP): 12.2 µM
CC50 (PC-3): 18.7 µM
Drug uptake [2]: Active
Drug uptake [3]: Active
Activity [4]: 1.9 10^9(p/s)(uW/cm^2)
Activity [5]: 1.9 10^9(p/s)(uW/cm^2)
C0 [6]: 869 µg/mL
C0 [7]: 342 µg/mL
AUC(0-t) [8]: 70000 ng·h/mL
AUC(0-t) [9]: 53000 ng·h/mL
AUC(0-inf) [10]: 82000 ng·h/mL
AUC(0-inf) [11]: 76000 ng·h/mL
k el [12]: 0.000181 s⁻¹
k el [13]: 0.000179 s⁻¹
half-life [14]: 1.39 h
half-life [15]: 1.78 h
Vd [16]: 1.49 L/kg
Vd [17]: 0.954 L/kg
clearance [18]: 14 mL/min/kg
clearance [19]: 8.22 mL/min/kg
MRT last [20]: 0.18 h
MRT last [21]: 0.719 h
Drug uptake [22]: Active
Drug uptake [23]: Active
Drug uptake [24]: Active
Drug excretion [25]: Active
Drug uptake [26]: Active
MTD at 14 h [27]: 89.7 mg/kg
Activity [28]: Toxic
Activity [29]: Non-Toxic
Activity [30]: Non-Toxic
Activity [31]: Toxic
MTD at 336 h [32]: 45 mg/kg
Activity [33]: Non-Toxic
Activity [34]: Non-Toxic
Activity [35]: Toxic
Activity [36]: Toxic
Activity [37]: Non-Toxic
Activity [38]: Non-Toxic
Activity [39]: Non-Toxic
Activity [40]: Non-Toxic
Activity [41]: Non-Toxic
Activity [42]: Non-Toxic
Activity [43]: Non-Toxic
logD [44]: -0.48
solubility [45]: 560 µg/mL (≈ 312 µM)
